Calls of active or inactive are those of the source. How the calls were made is not given here.

In this data set the test system is CCRIS mutagenicity, Ames/micronucleus/aberration tests. The experiment in a line: CCRIS mutagenicity studies.
Setting [1] is: Test System: AMES SALMONELLA TYPHIMURIUM, Strain/Indicator: TA100, Metabolic Activation: RAT, LIVER, S-9, AROCLOR 1254, Method: STANDARD PLATE.
The mark [2] stands for this setting: Test System: AMES SALMONELLA TYPHIMURIUM, Strain/Indicator: TA98, Metabolic Activation: NONE, Method: PREINCUBATION

For the compound `Nc1cc(Cl)nc(C(=O)O)c1Cl`, the mutagenic call was “inactive; negative” (End Point: In vitro chromosomal aberrations, Test System: Primary rat lymphocytes, Metabolic Activation: Rodent S-9); “inactive; negative; purity 94.5%” (Test System: Ames Salmonella typhimurium, Strain/Indicator: TA98, Metabolic Activation: None, Method: Preincubation); “inactive; negative; purity 94.5%” (Test System: Ames Salmonella typhimurium, Strain/Indicator: TA98, Metabolic Activation: Rat, Liver, S-9, Aroclor 1254, Method: Preincubation); “inactive; negative; purity 94.5%” (Test System: Ames Salmonella typhimurium, Strain/Indicator: TA100, Metabolic Activation: None, Method: Preincubation); “inactive; negative; purity 94.5%” (Test System: Ames Salmonella typhimurium, Strain/Indicator: TA100, Metabolic Activation: Rat, Liver, S-9, Aroclor 1254, Method: Preincubation); “inactive; negative; purity 94.5%” (Test System: Ames Salmonella typhimurium, Strain/Indicator: TA1535, Metabolic Activation: None, Method: Preincubation). In addition, the mutagenic call is “inactive; negative; purity 94.5%” (Test System: Ames Salmonella typhimurium, Strain/Indicator: TA1535, Metabolic Activation: Rat, Liver, S-9, Aroclor 1254, Method: Preincubation); “inactive; negative; purity 94.5%” (Test System: Ames Salmonella typhimurium, Strain/Indicator: TA1537, Metabolic Activation: None, Method: Preincubation); “inactive; negative; purity 94.5%” (Test System: Ames Salmonella typhimurium, Strain/Indicator: TA1537, Metabolic Activation: Rat, Liver, S-9, Aroclor 1254, Method: Preincubation); “inactive; negative” (Test System: Chinese hamster ovary cells, Strain/Indicator: CHO-K1-BH4/HGPRT, Metabolic Activation: None, Method: Forward mutation assay); “inactive; negative; purity 94.5%” (Test System: Chinese hamster ovary cells, Strain/Indicator: CHO-K1-BH4/HGPRT, Metabolic Activation: Rat, Liver, S-9, Aroclor 1254, Method: Forward mutation assay); “inactive; negative” (Test System: E. coli, Strain/Indicator: WP2 UVR A, Metabolic Activation: None, Method: Preincubation). The mutagenic call (Test System: E. coli, Strain/Indicator: WP2 UVRA, Metabolic Activation: Rat, Liver, S-9, Aroclor 1254, Method: Preincubation) was “inactive; negative”.

As to `Cc1nc2ccc3ccc4ccc(O)cc4c3c2n1C`, where the note is “Test System: AMES SALMONELLA TYPHIMURIUM, Strain/Indicator: TA98, Metabolic Activation: RAT, LIVER, S-9, AROCLOR, Method: STANDARD PLATE”, the mutagenic call is “active; positive”.

For the compound `CC1(C)C2CC3OC3(C)C1C2` (stereo not drawn), the mutagenic call (Test System: AMES SALMONELLA TYPHIMURIUM, Strain/Indicator: TA100, Metabolic Activation: NONE, Method: STANDARD PLATE) was “inactive; negative”; the mutagenic call under setting [1] was “inactive; negative”; the mutagenic call (Test System: AMES SALMONELLA TYPHIMURIUM, Strain/Indicator: TA1535, Metabolic Activation: NONE, Method: STANDARD PLATE) was “inactive; negative”; the mutagenic call (Test System: AMES SALMONELLA TYPHIMURIUM, Strain/Indicator: TA1535, Metabolic Activation: RAT, LIVER, S-9, AROCLOR 1254, Method: STANDARD PLATE) was “inactive; negative”; the mutagenic call (Test System: UDS RAT HEPATOCYTES, Strain/Indicator: THY INCORP, Metabolic Activation: NONE) was “inactive; negative”.

`C=C(C)[C@@H]1CC=C(C=O)CC1`: the mutagenic call (Test System: AMES SALMONELLA TYPHIMURIUM, Strain/Indicator: TA97, Metabolic Activation: NONE, Method: PREINCUBATION) is “inactive; negative”; the mutagenic call (Test System: AMES SALMONELLA TYPHIMURIUM, Strain/Indicator: TA97, Metabolic Activation: RAT, LIVER, S-9, AROCLOR 1254, Method: PREINCUBATION) is “inactive; negative”; the mutagenic call (Test System: AMES SALMONELLA TYPHIMURIUM, Strain/Indicator: TA102, Metabolic Activation: NONE, Method: PREINCUBATION) is “inactive; negative”; the mutagenic call (Test System: AMES SALMONELLA TYPHIMURIUM, Strain/Indicator: TA102, Metabolic Activation: RAT, LIVER, S-9, AROCLOR 1254, Method: PREINCUBATION) is “inactive; negative”.

Consider `Oc1cc2cc3ccccc3cc2c2ccccc12`, for which the mutagenic call (Test System: CHINESE HAMSTER V-79, Strain/Indicator: V-79/8-AZAGUANINE, Metabolic Activation: NONE, Method: STANDARD PLATE) was “active; positive”.

Turning to `OC1CCCCC1`, the mutagenic call runs as follows: (Test System: AMES SALMONELLA TYPHIMURIUM, Strain/Indicator: TA98, Metabolic Activation: HAMSTER, LIVER, S-9, AROCLOR 1254, Method: PREINCUBATION) “inactive; negative”; under setting [2], “inactive; negative”; (Test System: AMES SALMONELLA TYPHIMURIUM, Strain/Indicator: TA98, Metabolic Activation: RAT, LIVER, S-9, AROCLOR 1254, Method: PREINCUBATION) “inactive; negative”; (Test System: AMES SALMONELLA TYPHIMURIUM, Strain/Indicator: TA100, Metabolic Activation: HAMSTER, LIVER, S-9, AROCLOR 1254, Method: PREINCUBATION) “inactive; negative”; (Test System: AMES SALMONELLA TYPHIMURIUM, Strain/Indicator: TA100, Metabolic Activation: NONE, Method: PREINCUBATION) “inactive; negative”; (Test System: AMES SALMONELLA TYPHIMURIUM, Strain/Indicator: TA100, Metabolic Activation: RAT, LIVER, S-9, AROCLOR 1254, Method: PREINCUBATION) “inactive; negative”. In addition, the mutagenic call by setting is: (Test System: AMES SALMONELLA TYPHIMURIUM, Strain/Indicator: TA1535, Metabolic Activation: HAMSTER, LIVER, S-9, AROCLOR 1254, Method: PREINCUBATION) “inactive; negative”; (Test System: AMES SALMONELLA TYPHIMURIUM, Strain/Indicator: TA1535, Metabolic Activation: NONE, Method: PREINCUBATION) “inactive; negative”; (Test System: AMES SALMONELLA TYPHIMURIUM, Strain/Indicator: TA1535, Metabolic Activation: RAT, LIVER, S-9, AROCLOR 1254, Method: PREINCUBATION) “inactive; negative”; (Test System: AMES SALMONELLA TYPHIMURIUM, Strain/Indicator: TA1537, Metabolic Activation: HAMSTER, LIVER, S-9, AROCLOR 1254, Method: PREINCUBATION) “inactive; negative”; (Test System: AMES SALMONELLA TYPHIMURIUM, Strain/Indicator: TA1537, Metabolic Activation: NONE, Method: PREINCUBATION) “inactive; negative”; (Test System: AMES SALMONELLA TYPHIMURIUM, Strain/Indicator: TA1537, Metabolic Activation: RAT, LIVER, S-9, AROCLOR 1254, Method: PREINCUBATION) “inactive; negative”.

Consider `O=C1c2ccccc2-c2ccc3ccc4ccccc4c3c21`, for which, under setting [1], the mutagenic call was “inactive; negative”.

In the case of `O=[N+]([O-])c1cccc2nc3cccc([N+](=O)[O-])c3nc12`, the mutagenic call reads like this: (Test System: AMES SALMONELLA TYPHIMURIUM, Strain/Indicator: TA98(NR), Metabolic Activation: NONE, Method: PREINCUBATION) “active; positive”; under setting [2], “active; positive”.

On to `c1cc2c3c(c4c(ccc5ccccc54)cc3c1)[C@H]1O[C@@H]21`, for which the mutagenic call reads like this: under setting [2], “active; positive”; (Test System: AMES SALMONELLA TYPHIMURIUM, Strain/Indicator: TA98, Metabolic Activation: NONE, Method: STANDARD PLATE) “active; positive”; (Test System: AMES SALMONELLA TYPHIMURIUM, Strain/Indicator: TA98, Metabolic Activation: RAT, LIVER, S-9, AROCLOR 1254, Method: STANDARD PLATE) “active; positive”; (Test System: CHINESE HAMSTER OVARY, Strain/Indicator: V-79/6-THIOGUANINE, Metabolic Activation: NONE, Method: FLASK ASSAY) “active; positive”.
